{"source": "ChEMBL document CHEMBL4011590", "about": "“Structure-activity relationship studies on 3,5-dinitrophenyl tetrazoles as antitubercular agents” (Eur J Med Chem, 2017)", "key": {"Mycobacterium kansasii [1]": {"system": "Mycobacterium kansasii", "test": "Antimycobacterial activity against Mycobacterium kansasii CNCTC My 235/80 after 14 days by micromethod", "type": "functional", "conditions": "CNCTC My 235/80, 336 h"}, "Mycobacterium avium [2]": {"system": "Mycobacterium avium", "test": "Antimycobacterial activity against Mycobacterium avium CNCTC My 330/80 after 21 days by micromethod", "type": "functional", "conditions": "CNCTC My 330/80, 504 h"}, "Mycobacterium kansasii [3]": {"system": "Mycobacterium kansasii", "test": "Antimycobacterial activity against Mycobacterium kansasii isolate 6509/96 after 21 days by micromethod", "type": "functional", "conditions": "isolate 6509/96, 504 h"}, "Mycobacterium kansasii [4]": {"system": "Mycobacterium kansasii", "test": "Antimycobacterial activity against Mycobacterium kansasii isolate 6509/96 after 7 days by micromethod", "type": "functional", "conditions": "isolate 6509/96, 168 h"}, "Mycobacterium kansasii [5]": {"system": "Mycobacterium kansasii", "test": "Antimycobacterial activity against Mycobacterium kansasii isolate 6509/96 after 14 days by micromethod", "type": "functional", "conditions": "isolate 6509/96, 336 h"}, "Mycobacterium kansasii [6]": {"system": "Mycobacterium kansasii", "test": "Antimycobacterial activity against Mycobacterium kansasii CNCTC My 235/80 after 7 days by micromethod", "type": "functional", "conditions": "CNCTC My 235/80, 168 h"}, "[7]": {"system": "Mycobacterium tuberculosis", "test": "Antimycobacterial activity against Mycobacterium tuberculosis H37Rv CNCTC My 331/88 after 21 days by micromethod", "type": "functional", "conditions": "H37Rv CNCTC My 331/88, 504 h"}, "[8]": {"system": "Mycobacterium tuberculosis", "test": "Antimycobacterial activity against Mycobacterium tuberculosis H37Rv CNCTC My 331/88 after 14 days by micromethod", "type": "functional", "conditions": "H37Rv CNCTC My 331/88, 336 h"}, "Mycobacterium avium [9]": {"system": "Mycobacterium avium", "test": "Antimycobacterial activity against Mycobacterium avium CNCTC My 330/80 after 14 days by micromethod", "type": "functional", "conditions": "CNCTC My 330/80, 336 h"}, "Mycobacterium kansasii [10]": {"system": "Mycobacterium kansasii", "test": "Antimycobacterial activity against Mycobacterium kansasii CNCTC My 235/80 after 21 days by micromethod", "type": "functional", "conditions": "CNCTC My 235/80, 504 h"}, "CHO-K1": {"system": "CHO-K1", "test": "Cytotoxicity against CHOK1 cells after 24 hrs by MTT assay", "type": "cell-based", "conditions": "Cricetulus griseus, CHO-K1, 24 h"}}}
{"smiles": "O=[N+]([O-])c1cc(-c2nnn(CCSc3nnnn3-c3ccc(Br)cc3)n2)cc([N+](=O)[O-])c1", "values": [{"measurement": "MIC99", "setting": "Mycobacterium kansasii [1]", "result": 1, "unit": "µM"}, {"measurement": "MIC99", "setting": "Mycobacterium avium [2]", "result": 2, "unit": "µM"}, {"measurement": "MIC99", "setting": "Mycobacterium kansasii [3]", "result": 1, "unit": "µM"}, {"measurement": "MIC99", "setting": "Mycobacterium kansasii [4]", "result": 1, "unit": "µM"}, {"measurement": "MIC99", "setting": "Mycobacterium kansasii [5]", "result": 1, "unit": "µM"}, {"measurement": "MIC99", "setting": "Mycobacterium kansasii [6]", "result": 0.5, "unit": "µM"}, {"measurement": "MIC99", "setting": "[7]", "result": 0.5, "unit": "µM"}, {"measurement": "MIC99", "setting": "[8]", "result": 0.5, "unit": "µM"}, {"measurement": "MIC99", "setting": "Mycobacterium avium [9]", "result": 2, "unit": "µM"}, {"measurement": "MIC99", "setting": "Mycobacterium kansasii [10]", "result": 1, "unit": "µM"}]}
{"smiles": "NNC(=O)c1ccncc1", "note": "[ISONIAZID]", "values": [{"measurement": "MIC99", "setting": "Mycobacterium kansasii [1]", "result": "> 250", "unit": "µM"}, {"measurement": "MIC99", "setting": "Mycobacterium kansasii [3]", "result": 4, "unit": "µM"}, {"measurement": "MIC99", "setting": "Mycobacterium kansasii [4]", "result": 4, "unit": "µM"}, {"measurement": "MIC99", "setting": "Mycobacterium kansasii [5]", "result": 4, "unit": "µM"}, {"measurement": "MIC99", "setting": "Mycobacterium avium [9]", "result": "> 250", "unit": "µM"}]}
{"smiles": "O=[N+]([O-])c1cc(-c2nnn(Cc3ccccc3)n2)cc([N+](=O)[O-])c1", "values": [{"measurement": "MIC99", "setting": "Mycobacterium kansasii [1]", "result": 2, "unit": "µM"}, {"measurement": "MIC99", "setting": "Mycobacterium avium [2]", "result": 8, "unit": "µM"}, {"measurement": "MIC99", "setting": "Mycobacterium kansasii [3]", "result": 2, "unit": "µM"}, {"measurement": "MIC99", "setting": "Mycobacterium kansasii [4]", "result": 1, "unit": "µM"}, {"measurement": "IC50", "setting": "CHO-K1", "result": 150, "unit": "µM"}, {"measurement": "MIC99", "setting": "Mycobacterium kansasii [5]", "result": 2, "unit": "µM"}, {"measurement": "MIC99", "setting": "Mycobacterium kansasii [6]", "result": 1, "unit": "µM"}, {"measurement": "MIC99", "setting": "[7]", "result": 1, "unit": "µM"}, {"measurement": "MIC99", "setting": "[8]", "result": 0.5, "unit": "µM"}, {"measurement": "MIC99", "setting": "Mycobacterium avium [9]", "result": 8, "unit": "µM"}, {"measurement": "MIC99", "setting": "Mycobacterium kansasii [10]", "result": 2, "unit": "µM"}]}
{"smiles": "O=[N+]([O-])c1cc(Sc2nnnn2Cc2ccccc2)cc([N+](=O)[O-])c1", "values": [{"measurement": "MIC99", "setting": "Mycobacterium kansasii [1]", "result": 8, "unit": "µM"}, {"measurement": "MIC99", "setting": "Mycobacterium avium [2]", "result": 62.5, "unit": "µM"}, {"measurement": "MIC99", "setting": "Mycobacterium kansasii [3]", "result": 4, "unit": "µM"}, {"measurement": "MIC99", "setting": "Mycobacterium kansasii [4]", "result": 2, "unit": "µM"}, {"measurement": "IC50", "setting": "CHO-K1", "result": 127, "unit": "µM"}, {"measurement": "MIC99", "setting": "Mycobacterium kansasii [5]", "result": 4, "unit": "µM"}, {"measurement": "MIC99", "setting": "Mycobacterium kansasii [6]", "result": 8, "unit": "µM"}, {"measurement": "MIC99", "setting": "[7]", "result": 2, "unit": "µM"}, {"measurement": "MIC99", "setting": "[8]", "result": 1, "unit": "µM"}, {"measurement": "MIC99", "setting": "Mycobacterium avium [9]", "result": 32, "unit": "µM"}, {"measurement": "MIC99", "setting": "Mycobacterium kansasii [10]", "result": 16, "unit": "µM"}]}
{"smiles": "O=[N+]([O-])c1cc(-c2nnn(CSc3nnnn3-c3ccc(Br)cc3)n2)cc([N+](=O)[O-])c1", "values": [{"measurement": "MIC99", "setting": "Mycobacterium kansasii [1]", "result": 0.25, "unit": "µM"}, {"measurement": "MIC99", "setting": "Mycobacterium kansasii [3]", "result": 0.25, "unit": "µM"}, {"measurement": "MIC99", "setting": "Mycobacterium kansasii [4]", "result": 0.06, "unit": "µM"}, {"measurement": "IC50", "setting": "CHO-K1", "result": 29, "unit": "µM"}, {"measurement": "MIC99", "setting": "Mycobacterium kansasii [5]", "result": 0.125, "unit": "µM"}, {"measurement": "MIC99", "setting": "Mycobacterium kansasii [6]", "result": 0.125, "unit": "µM"}, {"measurement": "MIC99", "setting": "[7]", "result": 0.03, "unit": "µM"}, {"measurement": "MIC99", "setting": "[8]", "result": 0.03, "unit": "µM"}, {"measurement": "MIC99", "setting": "Mycobacterium kansasii [10]", "result": 0.5, "unit": "µM"}]}
{"smiles": "O=[N+]([O-])c1cc(-c2nnn(Cc3c(F)cccc3Cl)n2)cc([N+](=O)[O-])c1", "values": [{"measurement": "MIC99", "setting": "Mycobacterium kansasii [1]", "result": 1, "unit": "µM"}, {"measurement": "MIC99", "setting": "Mycobacterium avium [2]", "result": 8, "unit": "µM"}, {"measurement": "MIC99", "setting": "Mycobacterium kansasii [3]", "result": 1, "unit": "µM"}, {"measurement": "MIC99", "setting": "Mycobacterium kansasii [4]", "result": 0.5, "unit": "µM"}, {"measurement": "MIC99", "setting": "Mycobacterium kansasii [5]", "result": 1, "unit": "µM"}, {"measurement": "MIC99", "setting": "Mycobacterium kansasii [6]", "result": 0.5, "unit": "µM"}, {"measurement": "MIC99", "setting": "[7]", "result": 0.5, "unit": "µM"}, {"measurement": "MIC99", "setting": "[8]", "result": 0.5, "unit": "µM"}, {"measurement": "MIC99", "setting": "Mycobacterium avium [9]", "result": 4, "unit": "µM"}, {"measurement": "MIC99", "setting": "Mycobacterium kansasii [10]", "result": 1, "unit": "µM"}]}
